# Patent US20080161607A1 (Teva Pharmaceuticals USA, Inc., priority 2002, published 2008)
# Tests used:
# [1] = Storage stability of bulk sertraline hydrochloride Form II; polymorph content by XRPD; conditions: for Polymorph Content of bulk sertraline hydrochloride, content of Form I (in parentheses) / Polymorph Content of bulk sertraline hydrochloride, Polymorphic Form detected (I or II): 40° C., 75% RH; for Polymorph Content of bulk sertraline hydrochloride, content of Form I (in parentheses): Form I relative to all sertraline hydrochloride
# Description: X-Ray powder diffraction data was obtained by using a SCINTAG powder X-Ray diffractometer model X′TRA equipped with a solid state detector. Copper radiation of 1.5418 Å was used. The diffractometer was equipped with a round aluminum sample holder with round zero background quartz plate having a cavity of 25(diameter)*0.5(depth) mm.
# [2] = granulation in isopropyl alcohol, ethyl acetate, hexane at 40 E to 60 E C; disclosed in U.S. Pat. No. 5,248,699; cited from earlier work
structure (smiles),measurement,setting,value
"CN[C@H]1CC[C@@H](c2ccc(Cl)c(Cl)c2)c2ccccc21.Cl [Example 1, (1S-cis)-4-(3,4 dichlorophenyl)-1,2,3,4-tetrahydro-N-methyl-1-naphthalenamine hydrochloride]","Polymorph Content of bulk sertraline hydrochloride, content of Form I (in parentheses)",[1]; 1 month,< 1%
same,"Polymorph Content of bulk sertraline hydrochloride, Polymorphic Form detected (I or II)","[1]; 1 month, hydrochloride",II > I
same,"Polymorph Content of bulk sertraline hydrochloride, content of Form I (in parentheses)",[1]; 2 months,2%
same,"Polymorph Content of bulk sertraline hydrochloride, Polymorphic Form detected (I or II)","[1]; 2 months, hydrochloride",II > I
same,"Polymorph Content of bulk sertraline hydrochloride, Polymorphic Form detected (I or II)",[1]; 3 months,II > I
same,"Polymorph Content of bulk sertraline hydrochloride, content of Form I (in parentheses)",[1]; 3 months,2%
same,"Polymorph Content of bulk sertraline hydrochloride, Polymorphic Form detected (I or II)",[1]; 4 months,II > I
same,"Polymorph Content of bulk sertraline hydrochloride, content of Form I (in parentheses)",[1]; 4 months,4%
same,"Polymorph Content of bulk sertraline hydrochloride, content of Form I (in parentheses)",[1]; t = 0,< 1%
same,"Polymorph Content of bulk sertraline hydrochloride, Polymorphic Form detected (I or II)","[1]; t = 0, hydrochloride",II > I
"CN[C@H]1CC[C@@H](c2ccc(Cl)c(Cl)c2)c2ccccc21.Cl [Form II, (1S-cis)-4-(3,4 dichlorophenyl)-1,2,3,4-tetrahydro-N-methyl-1-naphthalenamine hydrochloride]",result of granulation,[2],conversion to Form I
CN[C@H]1CC[C@@H](c2ccc(Cl)c(Cl)c2)c2ccccc21.Cl [sertraline hydrochloride],stability during storage under stress conditions,[1]; Form II containing at least about 1% w/w Form I,not stable
